Measured values reported in patent US20230416329A1, “A PEPTIDE WITH DISULFIDE BONDS AND INHIBITORY ACTIVITY AGAINST SERINE PROTEASES, DERIVED HYBRID PEPTIDES THEREOF, AND USES THEREOF” (INSTITUTE OF MATERIA MEDICA , CHINESE ACADEMY OF MEDICAL …, priority 2020, published 2023).

Experiments:
trypsin = biological target: T1, trypsin (Bos taurus, UniProt P00760); assay: in vitro; details: isolated enzyme trypsin, pH 7.8
T1 sequence (P00760 24-246): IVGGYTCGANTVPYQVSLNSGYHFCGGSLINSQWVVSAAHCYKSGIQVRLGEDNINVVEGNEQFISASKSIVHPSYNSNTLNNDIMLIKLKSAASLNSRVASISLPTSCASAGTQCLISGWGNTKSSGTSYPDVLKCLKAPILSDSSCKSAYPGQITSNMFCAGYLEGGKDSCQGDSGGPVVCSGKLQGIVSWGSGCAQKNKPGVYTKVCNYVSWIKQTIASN
Summary of the method: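 Remaining RP-HPLC peak area tracks undigested peptide over time. Samples were quenched with 10% TFA at time points between 1.5 and 60 min during 37 °C digestion. Trypsin was added from a 0.05 μg/μL solution after 5 min of thermal equilibration.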

DPP-IV = DPP-IV (Homo sapiens, UniProt P27487); assay: Tolerance of GLP-1 and its analogues to DPP-IV (RP-HPLC remaining peak area); assay type: in vitro ADME; details: peptide 25 μM, DPP-IV 0.5 ng/μL, 37° C.; for Remaining peak area (%)/DPP-IV: 0.0 h; for remaining at 0.5 h, 25 μM / remaining at 2 h, 25 μM / remaining at 4 h, 25 μM / remaining at 8 h, 25 μM / remaining at 12 h, 25 μM: isolated DPP-IV enzyme in buffer, pH 8
Procedure: (§1) Mix by centrifugation at 8000 rpm for 30 seconds.
(2) Arrange a certain volume of 0.005 μg/μL DPP-IV solution in another sterile EP.

NEP24.11 = NEP24.11 (Homo sapiens, UniProt P08473); assay: Tolerance of GLP-1 and its analogues to NEP24.11 (RP-HPLC remaining peak area); assay type: in vitro ADME; details: for Remaining peak area (%)/NEP24.11: 0.0 h; for Remaining peak area (%)/NEP24.11 / remaining at 0.5 h, 30 μM / remaining at 2 h, 30 μM / remaining at 4 h, 30 μM / remaining at 8 h, 30 μM: peptide 30 μM, NEP24.11 1.0 ng/μL, 37° C.; for remaining at 0.5 h, 30 μM / remaining at 2 h, 30 μM / remaining at 4 h, 30 μM / remaining at 8 h, 30 μM: isolated NEP24.11 enzyme in buffer; for remaining at 0.5 h, 30 μM: pH 7.4, 0.5 h; for remaining at 2 h, 30 μM: pH 7.4, 2.0 h; for remaining at 4 h, 30 μM: pH 7.4, 4.0 h; for remaining at 8 h, 30 μM: pH 7.4, 8.0 h, read-out: Remaining peak area (%)/NEP24.11
Procedure: as §1
Arrange a certain volume of 0.04 μg/μL NEP24.11 enzyme solution in another sterile EP.

[1] = Stability of GLP-1 and its analogues in human serum; details: 25% (v/v) human serum
chymotrypsin = chymotrypsin (Bos taurus, UniProt P00766); assay: in vitro; details: isolated enzyme chymotrypsin, pH 7.8, Remaining peak area (%)/chymotrypsin
Summary of the method: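 RP-HPLC peak area tracked intact peptide after 37 °C digestion with chymotrypsin (0.05 μg/μL solution, 5 min preincubation). Samples were withdrawn at 1.5-60.0 min and stopped with 10% TFA.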

Sequence of DPP-IV (P27487 whole entry, species assumed): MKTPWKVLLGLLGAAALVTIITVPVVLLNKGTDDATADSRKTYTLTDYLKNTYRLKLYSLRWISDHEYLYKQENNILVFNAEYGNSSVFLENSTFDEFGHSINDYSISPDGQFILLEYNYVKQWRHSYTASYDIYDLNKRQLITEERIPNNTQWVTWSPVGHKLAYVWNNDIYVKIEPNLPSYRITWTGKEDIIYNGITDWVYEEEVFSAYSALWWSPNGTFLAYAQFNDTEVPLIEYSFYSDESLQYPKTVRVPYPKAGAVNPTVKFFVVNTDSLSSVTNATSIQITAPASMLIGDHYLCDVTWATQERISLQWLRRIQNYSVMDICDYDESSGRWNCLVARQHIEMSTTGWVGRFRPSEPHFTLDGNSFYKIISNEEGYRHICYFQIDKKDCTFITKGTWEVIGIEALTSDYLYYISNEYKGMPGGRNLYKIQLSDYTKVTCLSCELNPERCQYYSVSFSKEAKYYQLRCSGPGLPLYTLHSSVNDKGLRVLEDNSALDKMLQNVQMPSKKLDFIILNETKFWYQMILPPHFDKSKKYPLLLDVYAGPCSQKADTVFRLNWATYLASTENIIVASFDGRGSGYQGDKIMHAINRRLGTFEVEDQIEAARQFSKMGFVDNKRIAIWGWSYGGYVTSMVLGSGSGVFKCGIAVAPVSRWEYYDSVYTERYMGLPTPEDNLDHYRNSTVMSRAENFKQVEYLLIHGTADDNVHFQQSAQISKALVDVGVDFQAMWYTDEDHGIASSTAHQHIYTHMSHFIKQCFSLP
Sequence of NEP24.11 (P08473 whole entry): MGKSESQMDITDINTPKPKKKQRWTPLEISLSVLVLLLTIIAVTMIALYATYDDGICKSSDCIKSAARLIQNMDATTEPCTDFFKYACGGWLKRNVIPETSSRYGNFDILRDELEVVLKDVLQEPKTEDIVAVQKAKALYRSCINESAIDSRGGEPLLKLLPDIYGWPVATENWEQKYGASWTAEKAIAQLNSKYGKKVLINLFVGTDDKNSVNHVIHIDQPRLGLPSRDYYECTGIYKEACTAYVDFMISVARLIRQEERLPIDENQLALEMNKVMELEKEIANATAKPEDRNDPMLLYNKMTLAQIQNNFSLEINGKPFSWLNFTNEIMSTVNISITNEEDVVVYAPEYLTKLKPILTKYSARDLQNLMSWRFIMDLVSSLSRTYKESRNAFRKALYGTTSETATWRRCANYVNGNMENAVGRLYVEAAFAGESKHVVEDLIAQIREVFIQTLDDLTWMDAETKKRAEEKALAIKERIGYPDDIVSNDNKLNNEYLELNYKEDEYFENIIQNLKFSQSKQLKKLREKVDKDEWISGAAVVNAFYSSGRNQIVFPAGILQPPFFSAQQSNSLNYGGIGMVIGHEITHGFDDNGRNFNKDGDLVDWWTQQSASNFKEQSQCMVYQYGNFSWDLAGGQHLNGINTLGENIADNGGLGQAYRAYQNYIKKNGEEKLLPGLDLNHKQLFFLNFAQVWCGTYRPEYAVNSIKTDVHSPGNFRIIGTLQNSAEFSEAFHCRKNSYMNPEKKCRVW

SMILES | remaining at 0.025 h, 60 μM (trypsin) [%] | remaining at 0.05 h, 60 μM (trypsin) [%] | remaining at 0.075 h, 60 μM (trypsin) [%] | remaining at 0.1 h, 60 μM (trypsin) [%] | remaining at 0.15 h, 60 μM (trypsin) [%] | Remaining peak area (%)/DPP-IV (DPP-IV) [%] | remaining at 0.5 h, 25 μM (DPP-IV) [%] | remaining at 2 h, 25 μM (DPP-IV) [%] | remaining at 4 h, 25 μM (DPP-IV) [%] | remaining at 8 h, 25 μM (DPP-IV) [%] | remaining at 12 h, 25 μM (DPP-IV) [%] | Remaining peak area (%)/NEP24.11 (NEP24.11) [%] | remaining at 0.5 h, 30 μM (NEP24.11) [%] | remaining at 2 h, 30 μM (NEP24.11) [%] | remaining at 4 h, 30 μM (NEP24.11) [%] | remaining at 8 h, 30 μM (NEP24.11) [%] | remaining at 0.025 h, 60 μM (chymotrypsin) [%] | remaining at 0.05 h, 60 μM (chymotrypsin) [%] | remaining at 0.075 h, 60 μM (chymotrypsin) [%] | remaining at 0.1 h, 60 μM (chymotrypsin) [%] | further results
CC[C@H](C)[C@H](NC(=O)[C@H](Cc1ccccc1)NC(=O)[C@H](CCC(=O)O)NC(=O)[C@H](CCCCN)NC(=O)[C@H](C)NC(=O)[C@H](C)NC(=O)[C@H](CCC(N)=O)NC(=O)CNC(=O)[C@H](CCC(=O)O)NC(=O)[C@H](CC(C)C)NC(=O)[C@H](Cc1ccc(O)cc1)NC(=O)[C@H](CO)NC(=O)[C@H](CO)NC(=O)[C@@H](NC(=O)[C@H](CC(=O)O)NC(=O)[C@H](CO)NC(=O)[C@@H](NC(=O)[C@H](Cc1ccccc1)NC(=O)[C@@H](NC(=O)CNC(=O)[C@H](CCC(=O)O)NC(=O)[C@H](C)NC(=O)[C@H](Cc1c[nH]cn1)NC(=O)CNC(=O)CNC(=O)[C@@H](NC(=O)[C@@H]1CCCN1C(=O)[C@@H](NC(=O)CN)[C@@H](C)CC)[C@@H](C)CC)[C@@H](C)O)[C@@H](C)O)C(C)C)C(=O)N[C@@H](C)C(=O)N[C@@H](Cc1c[nH]c2ccccc12)C(=O)N[C@@H](CC(C)C)C(=O)N[C@H](C(=O)N[C@@H](CCCCN)C(=O)NCC(=O)N[C@@H](CCCNC(=N)N)C(=O)NCC(=O)NCC(=O)N[C@@H](CCCCN)C(=O)NCC(=O)N[C@H]1CSSC[C@@H](C(=O)N[C@@H](Cc2ccccc2)C(=O)O)NC(=O)[C@H]([C@@H](C)CC)NC(=O)[C@@H]2CCCN2C(=O)[C@@H]2CCCN2C(=O)[C@H]([C@@H](C)CC)NC(=O)[C@H](CO)NC(=O)[C@H](CCCCN)NC(=O)[C@H]([C@@H](C)O)NC(=O)[C@H](C)NC(=O)[C@H](CCCNC(=N)N)NC(=O)CNC1=O)C(C)C [D-GLP-1-BT9] | 90.3 ± 1.9 | 92.2 ± 3.7 | 97.3 ± 1 | 94 ± 1.5 | 94.9 ± 1.8 | 100.0 ± 0.0 | 101 ± 1.2 | 98.7 ± 0.6 | 98.8 ± 2.3 | 100 ± 6.5 | 94 ± 2 | 100.0 ± 0.0 | 88.4 ± 2.3 | 79.3 ± 2.6 | 69.8 ± 2.6 | 58.6 ± 0.7 | 54.9 ± 3.8 | 43.3 ± 7 | 34.5 ± 7.4 | 27.1 ± 2.9 | remaining at 0.25 h, 60 μM (trypsin): 88.7 ± 3%; remaining at 0.5 h, 60 μM (trypsin): 90.8 ± 3.6%; remaining at 1 h, 60 μM (trypsin): 88.4 ± 3.9%; Remaining peak area (%)/human serum ([1]; 0.0 h, peptide 0.03 mM, 37° C.): 100.0 ± 0.0%; serum stability (in words) [1]: good serum stability; remaining at 0.5 h, 0.03 mM ([1]; human, pH 7): 80.4 ± 4%; remaining at 2 h, 0.03 mM ([1]; human, pH 7): 53.6 ± 7.6%; remaining at 4 h, 0.03 mM ([1]; human, pH 7): 46.5 ± 3.5%; remaining at 8 h, 0.03 mM ([1]; human, pH 7): 7.2 ± 1.3%; remaining at 12 h, 0.03 mM ([1]; human, pH 7): 9.1 ± 3.9%; remaining at 0.15 h, 60 μM (chymotrypsin): 17.4 ± 4.9%
CC[C@H](C)[C@H](NC(=O)[C@H](Cc1ccccc1)NC(=O)[C@H](CCC(=O)O)NC(=O)[C@H](CCCCN)NC(=O)[C@H](C)NC(=O)[C@H](C)NC(=O)[C@H](CCC(N)=O)NC(=O)CNC(=O)[C@H](CCC(=O)O)NC(=O)[C@H](CC(C)C)NC(=O)[C@H](Cc1ccc(O)cc1)NC(=O)[C@H](CO)NC(=O)[C@H](CO)NC(=O)[C@@H](NC(=O)[C@H](CC(=O)O)NC(=O)[C@H](CO)NC(=O)[C@@H](NC(=O)[C@H](Cc1ccccc1)NC(=O)[C@@H](NC(=O)CNC(=O)[C@H](CCC(=O)O)NC(=O)[C@H](C)NC(=O)[C@H](Cc1c[nH]cn1)NC(=O)CNC(=O)CNC(=O)CNC(=O)CNC(=O)CNC(=O)CNC(=O)CN)[C@@H](C)O)[C@@H](C)O)C(C)C)C(=O)N[C@@H](C)C(=O)N[C@@H](Cc1c[nH]c2ccccc12)C(=O)N[C@@H](CC(C)C)C(=O)N[C@H](C(=O)N[C@@H](CCCCN)C(=O)NCC(=O)N[C@@H](CCCNC(=N)N)C(=O)NCC(=O)O)C(C)C [G7-GLP-1] | 21 ± 2.9 | 17.2 ± 0.8 | 9.8 ± 2.9 | 4.5 ± 0.8 | 3.4 ± 1.7 | 100.0 ± 0.0 | 42.1 ± 15.5 | 51.1 ± 6.5 | 55.3 ± 14.4 | 42.3 ± 9.6 | 34.5 ± 2.1 | 100.0 ± 0.0 | 63 ± 5.1 | 27.2 ± 7.2 | 11.5 ± 0.3 | 0 | 72.1 ± 11.5 | 45.8 ± 6.5 | 38 ± 2.3 | 29.3 ± 4.7 | remaining prototype peptide after DPP-IV treatment (DPP-IV; 12 hours): about 34.5%; degradation by NEP24.11 (in words) (NEP24.11; after 8 hours): almost completely degraded; remaining at 0.15 h, 60 μM (chymotrypsin): 11.3 ± 3.2%
